Activity calls are given as the source filed them. No cut-off for these calls is given here.
Experiments:
[1] = biological target: Tyrosine-protein kinase ABL1 (Homo sapiens, UniProt P00519)
K562 = experiment: cells; conditions: Homo sapiens
Description: Cytotoxicity against K562 cells by MTT assay

Homo sapiens = species on record: Homo sapiens; experiment: Effect on DNA damage in p210 transfected M07 cells; format: functional, cell-based

Chain of Tyrosine-protein kinase ABL1 (P00519 whole entry): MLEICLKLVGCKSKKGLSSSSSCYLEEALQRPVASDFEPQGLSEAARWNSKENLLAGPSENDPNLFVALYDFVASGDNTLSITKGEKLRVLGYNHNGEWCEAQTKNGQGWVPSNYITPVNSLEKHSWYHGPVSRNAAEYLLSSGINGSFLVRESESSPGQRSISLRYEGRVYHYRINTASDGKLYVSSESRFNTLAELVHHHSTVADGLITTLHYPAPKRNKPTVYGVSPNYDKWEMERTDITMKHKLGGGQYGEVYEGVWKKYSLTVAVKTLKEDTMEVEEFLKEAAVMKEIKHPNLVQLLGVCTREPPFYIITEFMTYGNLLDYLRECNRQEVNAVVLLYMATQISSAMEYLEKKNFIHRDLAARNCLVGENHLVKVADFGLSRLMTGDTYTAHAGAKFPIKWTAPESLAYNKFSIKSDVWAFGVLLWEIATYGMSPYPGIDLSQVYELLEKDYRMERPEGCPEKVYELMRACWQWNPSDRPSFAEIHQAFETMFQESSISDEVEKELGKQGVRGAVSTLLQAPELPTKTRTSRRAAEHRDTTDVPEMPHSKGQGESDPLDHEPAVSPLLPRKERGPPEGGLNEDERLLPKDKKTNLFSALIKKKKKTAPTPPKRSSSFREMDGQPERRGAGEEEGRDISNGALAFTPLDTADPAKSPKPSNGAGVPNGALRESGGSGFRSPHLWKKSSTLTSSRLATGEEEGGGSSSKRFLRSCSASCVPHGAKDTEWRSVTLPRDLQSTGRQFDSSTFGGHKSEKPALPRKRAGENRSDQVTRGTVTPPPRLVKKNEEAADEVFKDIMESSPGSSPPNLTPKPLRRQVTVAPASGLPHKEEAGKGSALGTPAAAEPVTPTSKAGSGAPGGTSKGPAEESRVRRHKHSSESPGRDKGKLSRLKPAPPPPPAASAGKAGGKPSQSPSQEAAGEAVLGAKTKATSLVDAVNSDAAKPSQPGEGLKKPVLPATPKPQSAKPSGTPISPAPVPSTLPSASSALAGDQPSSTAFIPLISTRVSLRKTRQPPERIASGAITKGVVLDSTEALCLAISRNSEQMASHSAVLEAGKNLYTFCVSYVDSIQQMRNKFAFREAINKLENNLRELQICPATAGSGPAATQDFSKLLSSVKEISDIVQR

IC50 (K562) | SMILES | IC50 [1] | Activity (Homo sapiens)
– | Cc1ccc(NC(=O)c2ccc(N)cc2)cc1Nc1nccc(-c2cccnc2)n1 | > 10 µM | –
9.98 µM | CNN=Nc1ccc(C(=O)Nc2ccc(C)c(Nc3nccc(-c4cccnc4)n3)c2)cc1Cl | – | –
0.052 µM | Cc1ccc(NC(=O)c2ccc(N=NN(C)C)c(C(F)(F)F)c2)cc1Nc1nccc(-c2cccnc2)n1 | – | –
0.316 µM | Cc1ccc(NC(=O)c2ccc(N)c(C(F)(F)F)c2)cc1Nc1nccc(-c2cccnc2)n1 | – | –
0.187 µM | Cc1ccc(NC(=O)c2ccc(N=NN(C)CO)c(C(F)(F)F)c2)cc1Nc1nccc(-c2cccnc2)n1 | – | –
0.113 µM | CNN=Nc1ccc(C(=O)Nc2ccc(C)c(Nc3nccc(-c4cccnc4)n3)c2)cc1C(F)(F)F | – | Active

SMILES | IC50 (K562) | IC50 [1] | Activity (Homo sapiens)
Cc1ccc(NC(=O)c2ccc(CN(C)CCCl)cc2)cc1Nc1nccc(-c2cccnc2)n1 | 79.7 µM | – | –
Cc1ccc(NC(=O)c2ccc(N(CCCl)CCCl)cc2)cc1Nc1nccc(-c2cccnc2)n1 | 2.46 µM | 0.22 µM | –
Cc1ccc(NC(=O)c2ccc(CN(CCCl)CCCl)cc2)cc1Nc1nccc(-c2cccnc2)n1 | > 100 µM | > 10 µM | –
